For seven cell lines, relative viability results are on record in the supplement of paper PMC10307832.

What all share (experiment): relative viability (nuclei count vs DMSO), 5 days (fraction); higher = more cells survive
Compound in one test: C1CC(C2=C(C1)C3=C(N2)C=CC(=C3)Cl)C(=O)N [Selisistat]
The procedure, abridged: (§1)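 Viability was read as treated-well nuclei divided by vehicle-well nuclei, using the median across plates. Lung cancer cell lines in 1536-well plates were kept overnight at 37 °C, pinned with five √10-spaced library-drug doses, and after 5 days were Hoechst-stained, imaged at 4× and counted in MetaXpress. Plates passed only with control CV below 25% and at least one doubling.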

Compound in the next test: c1ccc2c(CCNc3ccc(Nc4ccncc4)cc3)c[nH]c2c1 [Serdemetan]
The procedure, abridged:
as §1

Compound in the test “Selisistat + Alpelisib”: C1CC(C2=C(C1)C3=C(N2)C=CC(=C3)Cl)C(=O)N [Selisistat] + Cc1nc(NC(=O)N2CCC[C@H]2C(N)=O)sc1-c1ccnc(C(C)(C)C(F)(F)F)c1 [Alpelisib] (partner 2 µM)
The procedure, abridged: (§2)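 A single step with final 0.05% Triton X-100, 1% formaldehyde and 1 ug/ml Hoechst fixed the cells and stained nuclei 5 days after treatment. Lung cancer cell lines in 1536-well plates had been treated by pin tool the day after seeding with one drug alone or a fixed anchor-drug dose plus five library-drug doses (not always all listed) in √10 steps, and nuclei were counted on 4× images. Relative viability is the ratio of nuclei in treated wells to nuclei in vehicle wells, taken as the median of duplicate plates.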

Compound in the test “Serdemetan + Pemetrexed”: c1ccc2c(CCNc3ccc(Nc4ccncc4)cc3)c[nH]c2c1 [Serdemetan] + Nc1nc2[nH]cc(CCc3ccc(C(=O)N[C@@H](CCC(=O)O)C(=O)O)cc3)c2c(=O)[nH]1 [Pemetrexed] (partner 0.2 µM)
The procedure, abridged:
as §2

HCC-44: the relative viability in the test with Selisistat (0.4 µM) stood at 1.01; in the test with Selisistat (1.265 µM), 0.738; with Selisistat (4 µM), 1.08; with Selisistat (12.65 µM), 0.982; in the test with Selisistat (40 µM), 1.06; in the test with Serdemetan (0.04 µM), 0.935. Besides, the relative viability stood at 0.982 with Serdemetan (0.1265 µM); 0.944 in the test with Serdemetan (0.4 µM); 0.854 in the test with Serdemetan (1.265 µM); 0.962 with Serdemetan (4 µM); 0.86 with Selisistat + Alpelisib (first compound 0.4 µM); 0.874 with Selisistat + Alpelisib (first compound 1.265 µM). Further, the relative viability with Selisistat + Alpelisib (first compound 4 µM) came to 0.853; with Selisistat + Alpelisib (first compound 12.65 µM) it was 0.846; with Selisistat + Alpelisib (first compound 40 µM), 0.9; with Serdemetan + Pemetrexed (first compound 0.04 µM) it was 0.62; with Serdemetan + Pemetrexed (first compound 0.1265 µM), 0.621; with Serdemetan + Pemetrexed (first compound 0.4 µM) it was 0.577. The results for the relative viability in the test with Serdemetan + Pemetrexed (first compound 1.265 µM) and with Serdemetan + Pemetrexed (first compound 4 µM) were 0.574 and 0.644, respectively.
As for HCC-78, the relative viability stood at 0.954 with Selisistat (0.4 µM); 1.08 with Selisistat (1.265 µM); 0.7 in the test with Selisistat (4 µM); 0.875 with Selisistat (12.65 µM); 0.939 in the test with Selisistat (40 µM); 0.998 with Serdemetan (0.04 µM). In addition, the relative viability with Serdemetan (0.1265 µM) turned out to be 0.752; with Serdemetan (0.4 µM) it was 0.842; with Serdemetan (1.265 µM), 0.828; with Serdemetan (4 µM) it was 0.648; in the test with Selisistat + Alpelisib (first compound 0.4 µM) it was 0.439; in the test with Selisistat + Alpelisib (first compound 1.265 µM), 0.367. In addition, the relative viability in the test with Selisistat + Alpelisib (first compound 4 µM) turned out to be 0.349; with Selisistat + Alpelisib (first compound 12.65 µM) it was 0.34; with Selisistat + Alpelisib (first compound 40 µM), 0.278; with Serdemetan + Pemetrexed (first compound 0.04 µM), 0.93; with Serdemetan + Pemetrexed (first compound 0.1265 µM), 0.879; with Serdemetan + Pemetrexed (first compound 0.4 µM), 0.903. The relative viability was 0.917 with Serdemetan + Pemetrexed (first compound 1.265 µM) and 0.915 in the test with Serdemetan + Pemetrexed (first compound 4 µM).
For the cell line HCC-366, the relative viability with Selisistat (0.4 µM) was determined as 0.997; with Selisistat (1.265 µM), 0.957; with Selisistat (4 µM), 0.894; with Selisistat (12.65 µM), 1.01; in the test with Selisistat (40 µM), 1; in the test with Serdemetan (0.04 µM), 1. Besides, the relative viability amounted to 0.989 in the test with Serdemetan (0.1265 µM); 0.978 with Serdemetan (0.4 µM); 0.121 with Serdemetan (1.265 µM); 0.101 with Serdemetan (4 µM); 0.341 with Selisistat + Alpelisib (first compound 0.4 µM); 0.337 with Selisistat + Alpelisib (first compound 1.265 µM). Besides, the relative viability in the test with Selisistat + Alpelisib (first compound 4 µM) was found to be 0.268; with Selisistat + Alpelisib (first compound 12.65 µM) it was 0.397; in the test with Selisistat + Alpelisib (first compound 40 µM), 0.354; in the test with Serdemetan + Pemetrexed (first compound 0.04 µM), 0.177; with Serdemetan + Pemetrexed (first compound 0.1265 µM), 0.135; in the test with Serdemetan + Pemetrexed (first compound 0.4 µM) it was 0.15. Further, the relative viability amounted to 0.0885 in the test with Serdemetan + Pemetrexed (first compound 1.265 µM) and 0.055 in the test with Serdemetan + Pemetrexed (first compound 4 µM).
For HCC-827, the relative viability with Selisistat (0.4 µM) was 1.02; with Selisistat (1.265 µM), 1.04; with Selisistat (4 µM) it was 0.952; with Selisistat (12.65 µM) it was 0.975; with Selisistat (40 µM), 1; in the test with Serdemetan (0.04 µM), 1.04. Besides, the relative viability with Serdemetan (0.1265 µM) amounted to 0.972; with Serdemetan (1.265 µM) it was 0.862; with Serdemetan (4 µM), 0.83; with Selisistat + Alpelisib (first compound 0.4 µM), 0.98; in the test with Selisistat + Alpelisib (first compound 1.265 µM), 0.976; in the test with Selisistat + Alpelisib (first compound 4 µM), 0.919. Moreover, the relative viability in the test with Selisistat + Alpelisib (first compound 12.65 µM) was found to be 0.999; with Selisistat + Alpelisib (first compound 40 µM), 0.978; with Serdemetan + Pemetrexed (first compound 0.04 µM), 0.218; with Serdemetan + Pemetrexed (first compound 0.1265 µM) it was 0.191; with Serdemetan + Pemetrexed (first compound 1.265 µM) it was 0.2; in the test with Serdemetan + Pemetrexed (first compound 4 µM), 0.227.
Consider HOP-62, for which the relative viability stood at 0.997 with Selisistat (0.4 µM); 0.987 with Selisistat (1.265 µM); 0.861 with Selisistat (4 µM); 0.928 in the test with Selisistat (12.65 µM); 1.07 in the test with Selisistat (40 µM); 1.03 with Serdemetan (0.04 µM). For the same cell line, the relative viability with Serdemetan (0.1265 µM) stood at 0.999; in the test with Serdemetan (0.4 µM), 1.01; with Serdemetan (1.265 µM), 0.873; in the test with Serdemetan (4 µM), 0.907; with Selisistat + Alpelisib (first compound 0.4 µM) it was 0.796; with Selisistat + Alpelisib (first compound 1.265 µM), 1.02. For the same cell line, the relative viability with Selisistat + Alpelisib (first compound 4 µM) was determined as 1.06; with Selisistat + Alpelisib (first compound 12.65 µM), 0.944; in the test with Selisistat + Alpelisib (first compound 40 µM) it was 1; with Serdemetan + Pemetrexed (first compound 0.04 µM), 0.293; with Serdemetan + Pemetrexed (first compound 0.1265 µM), 0.368; with Serdemetan + Pemetrexed (first compound 0.4 µM), 0.307. Further, the relative viability with Serdemetan + Pemetrexed (first compound 1.265 µM) was 0.333; with Serdemetan + Pemetrexed (first compound 4 µM), 0.365.
With LC-2-ad, the relative viability with Selisistat (0.4 µM) came out at 1.05; with Selisistat (1.265 µM), 0.762; with Selisistat (4 µM), 0.794; with Selisistat (12.65 µM), 0.926; with Selisistat (40 µM) it was 1.01; in the test with Serdemetan (0.04 µM), 1. Further, the relative viability with Serdemetan (0.1265 µM) is 0.962; with Serdemetan (0.4 µM) it was 0.911; with Serdemetan (1.265 µM), 0.962; with Serdemetan (4 µM), 0.872; with Selisistat + Alpelisib (first compound 0.4 µM), 1.02; with Selisistat + Alpelisib (first compound 1.265 µM), 0.853. In addition, the relative viability in the test with Selisistat + Alpelisib (first compound 4 µM) is 0.89; with Selisistat + Alpelisib (first compound 12.65 µM) it was 0.848; with Selisistat + Alpelisib (first compound 40 µM), 0.901; in the test with Serdemetan + Pemetrexed (first compound 0.04 µM), 0.255; with Serdemetan + Pemetrexed (first compound 0.1265 µM), 0.231; in the test with Serdemetan + Pemetrexed (first compound 0.4 µM), 0.269. Further, the relative viability in the test with Serdemetan + Pemetrexed (first compound 1.265 µM) turned out to be 0.255; with Serdemetan + Pemetrexed (first compound 4 µM), 0.267.
On to LCLC-97TM1, for which the relative viability with Selisistat (0.4 µM) is 0.941; with Selisistat (1.265 µM) it was 0.933; in the test with Selisistat (12.65 µM), 0.962; in the test with Selisistat (40 µM) it was 1.09; in the test with Serdemetan (0.04 µM) it was 1.08; with Serdemetan (0.1265 µM) it was 0.975. The relative viability stood at 0.925 with Serdemetan (0.4 µM); 0.802 with Serdemetan (1.265 µM); 0.894 in the test with Serdemetan (4 µM); 0.233 with Selisistat + Alpelisib (first compound 0.4 µM); 0.229 with Selisistat + Alpelisib (first compound 1.265 µM); 0.278 with Selisistat + Alpelisib (first compound 4 µM). For the same cell line, the relative viability came to 0.275 in the test with Selisistat + Alpelisib (first compound 12.65 µM); 0.219 with Selisistat + Alpelisib (first compound 40 µM); 0.147 with Serdemetan + Pemetrexed (first compound 0.04 µM); 0.196 with Serdemetan + Pemetrexed (first compound 0.1265 µM); 0.188 with Serdemetan + Pemetrexed (first compound 0.4 µM); 0.153 with Serdemetan + Pemetrexed (first compound 1.265 µM). Further, the relative viability with Serdemetan + Pemetrexed (first compound 4 µM) amounted to 0.197.
